This test deals with T1, human kinase Mps-1 (Homo sapiens, UniProt P33981).
T1 construct: N-terminally GST-tagged human full length recombinant Mps-1 kinase; GST (N); purchased Invitrogen, Karslruhe, Germany PV4071
T1 sequence (P33981 1-857): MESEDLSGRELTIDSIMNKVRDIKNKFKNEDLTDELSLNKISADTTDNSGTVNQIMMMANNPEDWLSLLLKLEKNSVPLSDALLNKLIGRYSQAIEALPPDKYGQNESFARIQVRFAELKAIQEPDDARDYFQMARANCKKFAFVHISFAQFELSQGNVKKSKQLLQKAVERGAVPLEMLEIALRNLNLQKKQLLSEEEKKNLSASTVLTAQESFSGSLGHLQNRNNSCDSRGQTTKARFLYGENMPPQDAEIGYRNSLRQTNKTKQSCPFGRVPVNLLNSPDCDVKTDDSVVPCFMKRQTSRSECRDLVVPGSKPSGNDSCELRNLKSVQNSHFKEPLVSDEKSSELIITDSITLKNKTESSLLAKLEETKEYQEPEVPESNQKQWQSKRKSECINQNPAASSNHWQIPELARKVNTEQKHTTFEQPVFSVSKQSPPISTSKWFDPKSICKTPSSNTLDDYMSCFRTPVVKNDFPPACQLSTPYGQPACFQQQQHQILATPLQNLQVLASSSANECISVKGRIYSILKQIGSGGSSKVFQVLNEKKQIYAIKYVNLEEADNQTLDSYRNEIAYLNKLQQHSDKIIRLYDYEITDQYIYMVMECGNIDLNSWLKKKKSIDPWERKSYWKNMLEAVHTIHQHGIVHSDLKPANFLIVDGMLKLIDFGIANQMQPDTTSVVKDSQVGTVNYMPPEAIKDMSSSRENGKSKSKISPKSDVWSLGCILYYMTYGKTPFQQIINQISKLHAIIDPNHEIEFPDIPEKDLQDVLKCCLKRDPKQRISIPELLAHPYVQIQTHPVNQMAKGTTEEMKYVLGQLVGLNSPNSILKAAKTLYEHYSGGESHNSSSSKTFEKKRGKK
The test can be described thus: Mps-1 kinase assay (TR-FRET). Type of test: biochemical. To be noted: N-terminally GST-tagged human full length recombinant Mps-1; 10 μM ATP; 1 μM peptide substrate; 60 min at 22° C. The essentials: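 Read-out: TR-FRET from Europium-labelled anti-phospho(Ser/Thr) antibody to SA-XLent after 1 h detection incubation at 22° C. Inhibition of kinase activity measured.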
Background: Time-resolved FRET reads energy transfer from a long-lived donor to a nearby acceptor.

`CCc1cc(NCCC(F)(F)F)c2ncc(-c3ccc(C(=O)NC4(C)CC4)c(C)c3)n2c1` [Example 102, 4-{6-Ethyl-8-[(3,3,3-trifluoropropyl)amino]imidazo[1,2-a]pyridin-3-yl}-2-methyl-N-(1-methylcyclopropyl)benzamide]: the IC50 (as a rule, the concentration at which inhibition is half-maximal) was 131 nM.

Consider `CCNC(=O)c1ccc(-c2cnc3c(NCCC(F)(F)F)cc(Oc4ccc(OC)c(F)c4)cn23)cc1C` [Example 107, N-ethyl-4-{6-(3-fluoro-4-methoxyphenoxy)-8-[(3,3,3-trifluoropropyl)amino]imidazo[1,2-a]pyridin-3-yl}-2-methylbenzamide], for which the 50% inhibitory concentration (IC50) is 1.8 nM.

In the case of `Cc1cc(-c2cc(NCCC(F)(F)F)c3ncc(-c4ccc(C(=O)NC5CC5)c(C)c4)n3c2)ccc1C(=O)NC1CC1` [Example 32, 4,4′-{8-[(3,3,3-trifluoropropyl)amino]imidazo[1,2-a]pyridine-3,6-diyl}bis(N-cyclopropyl-2-methylbenzamide)], the IC50 amounted to 0.9 nM.

Turning to `CCNC(=O)c1ccc(-c2cnc3c(NCCC(F)(F)F)cc(Oc4cccc(OC(F)(F)F)c4)cn23)cc1C` [Example 77, N-ethyl-2-methyl-4-{6-[3-(trifluoromethoxy)phenoxy]-8-[(3,3,3-trifluoropropyl)amino]imidazo[1,2-a]pyridin-3-yl}benzamide], the IC50 amounted to 51 nM.

`Cc1cc(-c2cnc3c(NCCC(F)(F)F)cc(Oc4ccccc4)cn23)ccc1C(=O)NC1(C#N)CC1` [Example 57, N-(1-cyanocyclopropyl)-2-methyl-4-{6-phenoxy-8-[(3,3,3-trifluoropropyl)amino]imidazo[1,2-a]pyridin-3-yl}benzamide]: the half-inhibitory concentration (IC50) turned out to be 12.6 nM.

In the case of `C/C=C/c1cc(NCCC(F)(F)F)c2ncc(-c3ccc(C(=O)N[C@H]4C[C@@H]4F)c(C)c3)n2c1` (relative stereo) [Example 116, N-[rel-(1S,2S)-2-fluorocyclopropyl]-2-methyl-4-{6-[(1E)-prop-1-en-1-yl]-8-[(3,3,3-trifluoropropyl)amino]imidazo[1,2-a]pyridin-3-yl}benzamide], the IC50 was found to be 19.9 nM.

Take `CNC(=O)c1ccc(-c2cnc3c(NCCC(F)(F)F)cc(Oc4cccc(OC(F)(F)F)c4)cn23)cc1C` [Example 78, N,2-dimethyl-4-{6-[3-(trifluoromethoxy)phenoxy]-8-[(3,3,3-trifluoropropyl)amino]imidazo[1,2-a]pyridin-3-yl}benzamide]: the IC50 amounted to 30.3 nM.

Take `CNC(=O)c1ccc(-c2cnc3c(NCCC(F)(F)F)cc(Oc4ccc(OC(F)(F)F)c(F)c4)cn23)cc1C` [Example 86, 4-{6-[3-Fluoro-4-(trifluoromethoxy)phenoxy]-8-[(3,3,3-trifluoropropyl)amino]imidazo[1,2-a]pyridin-3-yl}-N,2-dimethylbenzamide]: the IC50 came to 56.7 nM.

On to `CNC(=O)c1ccc(-c2cnc3c(NCCC(F)(F)F)cc(Oc4ccc(OC(F)(F)F)cc4)cn23)cc1C` [Example 67, N,2-dimethyl-4-{6-[4-(trifluoromethoxy)phenoxy]-8-[(3,3,3-trifluoropropyl)amino]imidazo[1,2-a]pyridin-3-yl}benzamide], for which the IC50 worked out at 72.8 nM.

Consider `COc1ccc(Oc2cc(NCC(F)F)c3ncc(-c4ccc(C(=O)NC5CC5)c(C)c4)n3c2)cc1` [Example 162, N-cyclopropyl-4-{8-[(2,2-difluoroethyl)amino]-6-(4-methoxyphenoxy)imidazo[1,2-a]pyridin-3-yl}-2-methylbenzamide], for which the IC50 amounted to 8.6 nM.

Regarding `Cc1cc(-c2cnc3c(NCCC(F)(F)F)cc(Sc4cccc(F)c4F)cn23)ccc1C(=O)NC1CC1` [Example 3-2, N-cyclopropyl-4-{6-[(2,3-difluorophenyl)sulfanyl]-8-[(3,3,3-trifluoropropyl)amino]imidazo[1,2-a]pyridin-3-yl}-2-methylbenzamide], the IC50 worked out at 0.3 nM.

`Cc1cc(-c2cc(NCCC(F)(F)F)c3ncc(-c4ccc(C(=O)NC5CC5)c(C)c4)n3c2)ccc1C(N)=O` [Example 153, 4-{6-(4-carbamoyl-3-methylphenyl)-8-[(3,3,3-trifluoropropyl)amino]imidazo[1,2-a]pyridin-3-yl}-N-cyclopropyl-2-methylbenzamide]: the IC50 turned out to be 0.5 nM.

As for `Cc1cc(-c2cnc3c(NCCC(F)(F)F)cc(Oc4cccc(F)c4F)cn23)ccc1C(=O)NC1CC1` [Example 30, N-cyclopropyl-4-{6-(2,3-difluorophenoxy)-8-[(3,3,3-trifluoropropyl)amino]imidazo[1,2-a]pyridin-3-yl}-2-methylbenzamide], the IC50 came out at 0.4 nM.

On to `C=Cc1cc(NCCC(F)(F)F)c2ncc(-c3ccc(C(=O)NC4(C)CC4)c(C)c3)n2c1` [Example 95, 2-Methyl-N-(1-methylcyclopropyl)-4-{8-[(3,3,3-trifluoropropyl)amino]-6-vinylimidazo[1,2-a]pyridin-3-yl}benzamide], for which the IC50 was 140 nM.

Consider `C/C=C/c1cc(NCCC(F)(F)F)c2ncc(-c3ccc(C(=O)NC4(C#N)CC4)c(C)c3)n2c1` [Example 115, N-(1-cyanocyclopropyl)-2-methyl-4-{6-[(1E)-prop-1-en-1-yl]-8-[(3,3,3-trifluoropropyl)amino]imidazo[1,2-a]pyridin-3-yl}benzamide], for which the IC50 came to 59.4 nM.

Consider `Cc1ccc(F)cc1Oc1cc(NCC(F)F)c2ncc(-c3ccc(C(=O)NC4CC4)c(C)c3)n2c1` [Example 164, N-cyclopropyl-4-{8-[(2,2-difluoroethyl)amino]-6-(5-fluoro-2-methylphenoxy)imidazo[1,2-a]pyridin-3-yl}-2-methylbenzamide], for which the concentration for half-maximal inhibition (IC50) stood at 13.8 nM.

`CNC(=O)c1ccc(-c2cnc3c(NCCC(F)(F)F)cc(C(C)O)cn23)cc1C` (racemic) [Example 144, 4-{6-[(1RS)-1-Hydroxyethyl]-8-[(3,3,3-trifluoropropyl)amino]imidazo[1,2-a]pyridin-3-yl}-N,2-dimethylbenzamide]: the IC50 was determined as 233 nM.

Turning to `CCNC(=O)c1ccc(-c2cnc3c(NCCC(F)(F)F)cc(Oc4cccc(F)c4F)cn23)cc1C` [Example 73, 4-{6-(2,3-Difluorophenoxy)-8-[(3,3,3-trifluoropropyl)amino]imidazo[1,2-a]pyridin-3-yl}-N-ethyl-2-methylbenzamide], the IC50 was determined as 1.2 nM.

On to `Cc1cc(-c2cnc3c(NCCC(F)(F)F)cc(CCO)cn23)ccc1C(=O)NC1CC1` [Example 141, N-cyclopropyl-4-{6-(2-hydroxyethyl)-8-[(3,3,3-trifluoropropyl)amino]imidazo[1,2-a]pyridin-3-yl}-2-methylbenzamide], for which the IC50 was determined as 26.2 nM.

On to `CCNC(=O)c1ccc(-c2cnc3c(NCCC(F)(F)F)cc(Oc4cccc(F)c4)cn23)cc1C` [Example 10, N-ethyl-4-{6-(3-fluorophenoxy)-8-[(3,3,3-trifluoropropyl)amino]imidazo[1,2-a]pyridin-3-yl}-2-methylbenzamide], for which the IC50 was determined as 2.9 nM.

As to `C/C=C/c1cc(NCCC(F)(F)F)c2ncc(-c3ccc(C(=O)NC4(C)CC4)c(C)c3)n2c1` [Example 114, 2-Methyl-N-(1-methylcyclopropyl)-4-{6-[(1E)-prop-1-en-1-yl]-8-[(3,3,3-trifluoropropyl)amino]imidazo[1,2-a]pyridin-3-yl}benzamide], the IC50 worked out at 75.3 nM.

In the case of `CCNC(=O)c1ccc(-c2cnc3c(NCCC(F)(F)F)cc(Oc4cccc(Cl)c4)cn23)cc1C` [Example 35, 4-{6-(3-chlorophenoxy)-8-[(3,3,3-trifluoropropyl)amino]imidazo[1,2-a]pyridin-3-yl}-N-ethyl-2-methylbenzamide], the IC50 was 6.3 nM.

With `CCNC(=O)c1ccc(-c2cnc3c(NCCC(F)(F)F)cc(CCCO)cn23)cc1C` [Example 127, N-ethyl-4-{6-(3-hydroxypropyl)-8-[(3,3,3-trifluoropropyl)amino]imidazo[1,2-a]pyridin-3-yl}-2-methylbenzamide], the IC50 is 62.5 nM.

As to `Cc1cc(F)cc(Sc2cc(NCCC(F)(F)F)c3ncc(-c4ccc(C(=O)NC5CC5)c(C)c4)n3c2)c1` [Example 3-1, N-cyclopropyl-4-{6-[(3-fluoro-5-methylphenyl)sulfanyl]-8-[(3,3,3-trifluoropropyl)amino]imidazo[1,2-a]pyridin-3-yl}-2-methylbenzamide], the IC50 came to 0.6 nM.

Regarding `CNC(=O)c1ccc(-c2cnc3c(NCCC(F)(F)F)cc(/C=C\CO)cn23)cc1C` [Example 119, 4-{6-[(1Z)-3-hydroxyprop-1-en-1-yl]-8-[(3,3,3-trifluoropropyl)amino]imidazo[1,2-a]pyridin-3-yl}-N,2-dimethylbenzamide], the IC50 was determined as 54.7 nM.

These data come from patent publication US20140255392A1 (BAYER INTELLECTUAL PROPERTY GMBH, priority 2011, published 2014).
